# Experimental data reported in patent US20190231751A1, “TREATMENT OF FIBROTIC DISORDERS WITH JUN N-TERMINAL KINASE INHIBITORS” (Imago Pharmaceuticals, Inc., priority 2016, published 2019).
# Key:
# JNK = assay: TGF-β1-induced JNK activation in human lung fibroblasts (Western blot); type: cell-based; conditions: HFL-1 cells; compound 30 minutes, then TGF-β1 1 ng/ml 30 minutes
# Procedure: (§1) IGP001 and IGP002 are shown to affect TGF-β1-induced MAP kinase activities in human lung fibroblasts. Human fetal lung fibroblasts (HFL-1) (ATCC, Rockville, Md.) are cultured in Ham's F12K medium (American Type Culture Collection) supplemented with 50 U/ml penicillin G sodium, 50 μg/ml streptonycin sulfate (GIBCO BRL, Life Technologies, Inc., Rockville, Md.) and 10% fetal bovine serum (FBS; Equitech-Bio. Inc., Ingram, Tex.) and maintained in humidified 5% CO2 at 37° C. After reaching confluence, the serum content of the medium is reduced to 0.4% FBS for 24 h. The cells are then stimulated with 1 ng/ml TGF-β1 to produce CTGF.
# To test the ability of IGP001 and IGP002 to suppress activation of JNK, HFL-1 cells are cultured with 0.1% DMSO (control vehicle), IGP001 or IGP002 at a concentration of […] for 30 minutes, followed by stimulation with TGF-β1 (1 ng/ml) for 30 minutes. Activities of JNK, p38 MAP kinase and ERK are determined by Western blotting whole cell lysates using antibodies specific for phosphorylated, activated forms of JNK, p38 MAP kinase, and ERK. […]
# Phosphorylated JNK protein levels are quantified by densitometry. The optical density of the p46 and p54 phosphorylated protein band are corrected for total p46 and p54 protein, respectively, and results are expressed as ratio (%) of control value (TGF-β1-stimulated HFL-1 cells).
# [1] = system: myocardial ischemia-reperfusion; assay: Rat model of cardiac ischemia and remodeling; type: in vivo
# Procedure: To study the effects of JNK inhibitors on prevention and/or progression of cardiac infarct size following myocardial infarction, a rat model of cardiac ischemia and remodeling was used. Briefly, adult male Sprague-Dawley rats (Charles River labs) are subjected to 45 minutes normothermic ischemia (left coronary artery occlusion) followed by 48 hours reperfusion. In rodents, myocardial infarct size stabilizes by 48 hour post-ischemia following which events relating to left ventricular (LV) dilatation and remodeling begin. At the onset of reperfusion, animals receive vehicle, IGP001 or IGP002 (10 mg/kg/day) p.o. Infarct size as a percentage of region-at-risk (RAR) is determined using standard Evans Blue and tetrazolium chloride staining of the hearts. Rats are next tested for ischemic ventricular remodeling and cardiac function following treatment with IGP001 and IGP002. Rats subjected to 45 minutes normothermic myocardial ischemia receive vehicle, IGP001 or IGP002 p.o. (10 mg/kg/day, p.o.; twice/day for remainder of study) at onset of reperfusion. Following a 48 hour treatment period, animals are subjected to echocardiography (Philips Envisor C Ultrasound) at week 1 reperfusion and sacrificed at week 8 reperfusion. Myocardial ischemia-reperfusion is associated with the hall mark indices of LV remodeling: increased end-diastolic volume or LV dilatation; increased end-systolic volume (i.e. reduced cardiac output); reduced fractional shortening and ejection fraction. […] To better mimic the clinical scenario of delayed start of treatment, rats are administered with vehicle, IGP001 or IGP002 (10 mg/kg/day) p.o. 3 hours after the onset of reperfusion following a 45 minute myocardial ischemia. Animals are sacrificed at 48 hours reperfusion.
# JNK1 = JNK1 (Homo sapiens, UniProt P45983); assay: In vitro JNK1 inhibition (Table 1); type: biochemical
# Procedure: (§2) In vitro assays for the determination of JNK activities are known in the art and exemplary assay formats are described herein.
# (§3) IC50 values in Table 1 were determined using the procedures as described in U.S. Pat. No. 8,450,353.
# CTGF mRNA = assay: TGF-β1-induced CTGF mRNA expression in HFL-1 cells; type: cell-based, human; conditions: compound 30 min before TGF-β1 1 ng/ml for 4 hours
# Procedure: HFL-1 cells are created as described above in Example 3. HFL-1 cells are cultured with 0.1% DMSO (control vehicle), IGP001 or IGP002 for 30 min before stimulation with TGF-β1 (1 ng/ml) for 4 hours. Total RNA is extracted and hybridized with human CTGF probes, and messenger RNA levels are quantified by densitometry and optical density of CTGF mRNA band was corrected for G3PDH, and results are expressed as ratio (%) of control value (TGF-β1-stimulated HFL-1 cells).
# JNK2 = JNK2 (Homo sapiens, UniProt P45984); assay: In vitro JNK2 inhibition (Table 1); type: biochemical
# Procedure: as §2, §3
# [2] = system: bleomycin-induced lung fibrosis; assay: Mouse bleomycin-induced lung fibrosis model, therapeutic study; type: in vivo; conditions: 30 mg/kg b.i.d. oral gavage starting 7 days after bleomycin; male and female mice; 14 days
# Procedure: Age and gender-matched wild type mice on the C57BL/6 background were utilized for this study, as outlined in Table 3: Mice were housed in a sterile barrier facility and given a single inhaled dose of 1.25 Units/kg pharmacologic grade bleomycin (Teva Pharmaceuticals, Israel) in a volume of 50 μl. Mice received twice daily administered IGP001, via oral gavage, on a b.i.d. schedule starting 7 days after bleomycin treatment in this therapeutic study. Mice were sacrificed at 14 days following the administration of bleomycin and assessed as appropriate for deposited collagen in the lungs using Masson's Trichrome stain.
# [3] = system: transgenic SREBP-1c model of NASH; assay: Transgenic SREBP-1c model of NASH; type: in vivo, mice; conditions: 10 mg/kg/day p.o.
# Procedure: The ability of IGP001 and IGP002 are tested in the transgenic SREBP-1c model of NASH. SREBP-1c is a lipogenic transcription factor, and overexpression creates a model of congenital lipodystrophy in which severe insulin resistance and diabetes develop secondary to impaired adipose differentiation (Shimomura I et al., Genes Dev 1998; 12: 3182-3194). In these mice, decreased fat tissue with lipid accumulation in the liver is observed, and marked hepatic steatosis occurs by […] of age. When fed a standard diet, steatosis, lobular inflammation, and perivenular and pericellular fibrosis develop at 20 weeks (Nakayama H, et al., Metabolism 2007; 56: 470-475; Takahashi Y, World J Gastroenterol. 2012 May 21; 18(19): 2300-2308).
# ERK = assay: TGF-β1-induced ERK activation in human lung fibroblasts (Western blot); type: cell-based; conditions: HFL-1 cells; TGF-β1 1 ng/ml
# Procedure: as §1
# To test the ability of IGP001 and IGP002 to suppress activation of JNK, HFL-1 cells are cultured with 0.1% DMSO (control vehicle), IGP001 or IGP002 at a concentration of […] for 30 minutes, followed by stimulation with TGF-β1 (1 ng/ml) for 30 minutes. Activities of JNK, p38 MAP kinase and ERK are determined by Western blotting whole cell lysates using antibodies specific for phosphorylated, activated forms of JNK, p38 MAP kinase, and ERK. Two identical experiments independently performed yielded similar results.
# [4] = system: thioacetamide-induced liver fibrosis; assay: Thioacetamide-induced rat model of liver fibrosis; type: in vivo; conditions: 10 mg/kg/day p.o.
# Procedure: The antifibrotic effects of IGP001 and IGP002 are also evaluated in a thioacetamide-induced rat model of liver fibrosis. Study assessments include body and liver/kidney weight, liver function test, liver/kidney morphology and collagen deposition, fibrogenic gene and protein expression, and pharmacokinetic analyses.
# [5] = 10 mg/kg/day p.o. for 48 hours following myocardial ischemia, week 1
# JNK1, sequence (P45983 whole entry, species assumed): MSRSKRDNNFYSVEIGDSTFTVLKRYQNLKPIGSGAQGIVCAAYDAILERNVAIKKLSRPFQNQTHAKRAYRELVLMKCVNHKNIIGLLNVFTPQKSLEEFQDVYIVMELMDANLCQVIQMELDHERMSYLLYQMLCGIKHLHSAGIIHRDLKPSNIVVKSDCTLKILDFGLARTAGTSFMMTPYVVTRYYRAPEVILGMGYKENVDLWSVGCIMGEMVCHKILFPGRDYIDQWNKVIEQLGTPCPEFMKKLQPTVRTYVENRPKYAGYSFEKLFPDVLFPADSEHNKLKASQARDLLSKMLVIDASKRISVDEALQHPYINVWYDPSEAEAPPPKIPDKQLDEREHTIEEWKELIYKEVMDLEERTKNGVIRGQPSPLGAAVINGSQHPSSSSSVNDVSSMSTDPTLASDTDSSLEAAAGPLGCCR
# JNK2, sequence (P45984 whole entry, species assumed): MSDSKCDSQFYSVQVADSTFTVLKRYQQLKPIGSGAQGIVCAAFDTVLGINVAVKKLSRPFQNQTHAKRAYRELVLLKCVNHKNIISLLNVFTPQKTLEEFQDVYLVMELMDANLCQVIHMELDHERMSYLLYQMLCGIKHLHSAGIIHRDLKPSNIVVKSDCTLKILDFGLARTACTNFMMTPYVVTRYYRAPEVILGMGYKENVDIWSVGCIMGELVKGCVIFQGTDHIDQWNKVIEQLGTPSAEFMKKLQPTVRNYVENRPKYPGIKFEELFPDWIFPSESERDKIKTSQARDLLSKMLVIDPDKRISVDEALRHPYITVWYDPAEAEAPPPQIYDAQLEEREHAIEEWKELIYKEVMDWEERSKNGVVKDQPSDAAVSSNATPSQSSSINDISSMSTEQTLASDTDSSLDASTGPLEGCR
smiles,measurement,setting,value
"O=C(Cn1c(=O)ccc2cc(C(F)(F)F)ccc21)Nc1scc(Br)c1-c1nnc[nH]1 [IGP001, N-(4-bromo-3-(1H-1,2,4-triazol-5-yl)thiophen-2-yl)-2-(2-oxo-6-(trifluoromethyl)quinolin-1(2H)-yl)acetamide]",TGF-β1-induced JNK phosphorylation,JNK,suppress TGF-β1-induced JNK phosphorylation in a dose-dependent fashion
same,"size of infarction, delayed start of treatment","[1]; 10 mg/kg/day p.o. 3 hours after the onset of reperfusion, 48 hours reperfusion",statistically significant decrease in the size of infarction
same,postischemic myocardial infarct size,"[1]; 10 mg/kg/day p.o. at the onset of reperfusion, 48 hours reperfusion",significant reduction in postischemic myocardial infarct size
same,LV remodeling (echocardiography),[1]; [5],reduces adverse LV remodeling
same,cardiac function (echocardiography),[1]; [5],improved cardiac function
same,IC50,JNK1,< 100 nM
same,CTGF mRNA expression,CTGF mRNA,suppressed CTGF mRNA expression by HFL-1 cells stimulated with TGF-β1 in a dose-dependent fashion
same,IC50,JNK2,< 100 nM
same,deposited collagen in the lungs (Masson's Trichrome stain),[2],significantly reduced deposited collagen
same,collagen deposition,[3],significant reductions in collagen deposition
same,collagen type 1 protein and mRNA expression,[3],"significant reductions in collagen deposition, and collagen type 1 protein and mRNA expression"
same,TGF-β1-induced ERK activation,ERK,but not p38 MAP Kinase or ERK Activation
same,non-alcoholic fatty liver disease activity score,[4]; thioacetamide-induced NASH model,significantly reduce the non-alcoholic fatty liver disease activity score
same,collagen deposition,[4]; thioacetamide-induced model,significant reductions in collagen deposition
same,collagen type 1 protein and mRNA expression,[4]; thioacetamide-induced model,"significant reductions in collagen deposition, and collagen type 1 protein and mRNA expression"
